Experimental data published in patent publication US10590086B2, “Pharmaceutical compound” (IOmet Pharma Ltd., priority 2014, dated 2020).

Columns and labels:
[1] = target: T1, TDO (Homo sapiens, UniProt P48775); assay: hTDO biochemical coupled assay; conditions: 330 μM L-tryptophan, 17 minutes, room temperature; read-out: hTDO biochemical assay pIC50 (converted)
From the text: (§2) Two different assays were employed: 1. a cell-based assay for detecting the effect of test compounds on kynurenine production in two different cancer cell types. This assay utilised cancer cells which expressed either TDO or IDO and as such was used as a means of testing compound activity at these two enzymes in a cell-based context. 2. a TDO and IDO biochemical coupled assay which utilised recombinantly produced and purified TDO and IDO enzymes in combination with the enzyme formamidase. This coupled enzyme system allowed conversion of N-formylkynurenine produced by TDO or IDO activity to kynurenine which was then quantified by fluorescence following addition of Erhlich's Reagent The protocols for these are set out below.

[2] = target: T2, IDO (Homo sapiens, UniProt P14902); assay: hIDO biochemical coupled assay; conditions: 45 μM L-tryptophan, 17 minutes, room temperature; read-out: hIDO biochemical assay pIC50 (converted)
From the text: as §2

[3] = target: T1, TDO; assay: A172 kynurenine cell-based assay; design: This assay utilised cancer cells which expressed either TDO or IDO; endogenous in cells; host or cells: A172 (human glioblastoma); conditions: A172 human glioblastoma cells, 48 hours, 500 μM L-tryptophan; read-out: A172 Kynurenine cell based assay pIC50 (converted)
Method in brief: (§1)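 A172 glioblastoma cells (TDO) or SKOV3 ovarian cells (IDO, induced with 500 ng/ml IFN-γ) were grown in phenol red-free RPMI with 10% FCS, 2 mM L-glutamine and 500 μM L-tryptophan, ± test compound, 48 hours at 37° C. Supernatant kynurenine was measured by absorbance at 490 nm after Erhlich's reagent.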

[4] = target: T2, IDO; assay: SKOV3 kynurenine cell-based assay (IDO induced by IFN-γ); design: IDO expression was induced in the SKOV3 cells by the addition of 500 ng/ml IFN-γ; endogenous in cells; host or cells: SKOV3 (human ovarian adenocarcinoma), induced with IFN-γ; conditions: SKOV3 human ovarian adenocarcinoma cells, 500 ng/ml IFN-γ, 48 hours, 500 μM L-tryptophan; read-out: SKOV3 Kynurenine cell based assay pIC50 (converted)
Method in brief: as §1

T1 sequence (P48775 whole entry): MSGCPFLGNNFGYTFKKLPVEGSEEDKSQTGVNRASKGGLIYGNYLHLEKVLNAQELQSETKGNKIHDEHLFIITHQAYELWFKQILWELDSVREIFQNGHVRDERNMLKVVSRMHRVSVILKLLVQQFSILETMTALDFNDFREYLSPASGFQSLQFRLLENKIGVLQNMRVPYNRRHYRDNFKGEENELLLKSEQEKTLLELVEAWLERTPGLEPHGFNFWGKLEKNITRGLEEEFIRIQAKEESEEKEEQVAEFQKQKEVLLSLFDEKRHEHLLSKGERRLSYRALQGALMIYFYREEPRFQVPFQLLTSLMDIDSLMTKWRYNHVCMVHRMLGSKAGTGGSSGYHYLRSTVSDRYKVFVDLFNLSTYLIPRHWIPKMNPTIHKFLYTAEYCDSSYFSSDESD
T2 sequence (P14902 whole entry): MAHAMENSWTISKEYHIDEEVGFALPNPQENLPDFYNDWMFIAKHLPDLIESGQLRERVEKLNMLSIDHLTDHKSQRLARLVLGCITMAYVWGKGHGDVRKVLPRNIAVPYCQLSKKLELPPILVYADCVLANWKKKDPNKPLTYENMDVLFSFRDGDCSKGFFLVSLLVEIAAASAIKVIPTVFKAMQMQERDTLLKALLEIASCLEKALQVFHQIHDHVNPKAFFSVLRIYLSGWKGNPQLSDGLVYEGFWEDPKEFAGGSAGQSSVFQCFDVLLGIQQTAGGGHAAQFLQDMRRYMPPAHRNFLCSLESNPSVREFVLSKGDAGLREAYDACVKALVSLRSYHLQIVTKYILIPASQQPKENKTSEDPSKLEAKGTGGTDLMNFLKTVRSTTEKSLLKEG

Structure (SMILES) | IC50 [1] [µM] | IC50 [2] [µM] | IC50 [3] [µM] | IC50 [4] [µM]
CS(=O)(=O)Nc1ccc(C2CCN(c3cc(Cl)cc4[nH]ncc34)CC2)cc1 [Compound 437] | < 3.16 | 3.24 to 31.6 | < 3.16 | < 3.16
O=C1N[C@H]2CC[C@@H]1CN(c1cc(Br)cc3[nH]ncc13)C2 [Compound 438] | < 3.16 | 3.24 to 31.6 | < 3.16 | > 100
O=C1N[C@H]2CC[C@@H]1CN(c1cc(C(F)(F)F)cc3[nH]ncc13)C2 [Compound 439] | < 3.16 | 3.24 to 31.6 | < 3.16 | > 100
CNC(=O)c1ccc(C2CCN(c3cc(Cl)cc4[nH]ncc34)CC2)cc1 [Compound 440] | < 3.16 | 3.24 to 31.6 | < 3.16 | 3.24 to 31.6
CC(=O)Nc1ccc(C2CCN(c3cc(Cl)cc4[nH]ncc34)CC2)cc1 [Compound 441] | < 3.16 | > 100 | < 3.16 | < 3.16
Clc1cc(N2CCC(c3cscn3)CC2)c2cn[nH]c2c1 [Compound 442] | < 3.16 | 3.24 to 31.6 | < 3.16 | > 100
O=C1NC(=O)C(C2CCN(c3cc(Cl)cc4[nH]ncc34)CC2)N1 (stereo not shown) [Compound 443] | < 3.16 | > 100 | < 3.16 | > 100
CN1C(=O)NC(C2CCN(c3cc(Cl)cc4[nH]ncc34)CC2)C1=O (stereo not shown) [Compound 444] | < 3.16 | > 100 | < 3.16 | > 100
CNC(=O)c1ccc(N2CCN(c3cc(Cl)cc4[nH]ncc34)CC2)cc1 [Compound 445] | < 3.16 | > 100 | < 3.16 | < 3.16
CC(=O)NCC1(C)CN(c2cc(Cl)cc3[nH]ncc23)C1 [Compound 446] | < 3.16 | > 100 | < 3.16 | < 3.16
CN1C(=O)[C@@H]2CC[C@H]1CN(c1cc(C(F)(F)F)cc3[nH]ncc13)C2 [Compound 447] | < 3.16 | 3.24 to 31.6 | < 3.16 | > 100
Clc1cc(N2C[C@H]3CC[C@@H](C2)NC3)c2cn[nH]c2c1 [Compound 448] | < 3.16 | 3.24 to 31.6 | < 3.16 | > 100
CN(C1CCN(c2cc(Cl)cc3[nH]ncc23)CC1(C)C)S(C)(=O)=O (stereo not shown) [Compound 449] | < 3.16 | 3.24 to 31.6 | < 3.16 | 3.24 to 31.6
CC(=O)N(C)C1CCN(c2cc(Cl)cc3[nH]ncc23)CC1(C)C (stereo not shown) [Compound 450] | < 3.16 | < 3.16 | < 3.16 | < 3.16
Clc1cc(N2CCC(N3CCOCC3)CC2)c2cn[nH]c2c1 [Compound 451] | < 3.16 | 32.4 to 100 | < 3.16 | > 100
CC(=O)N1CCC2(CC1)CN(c1cc(Cl)cc3[nH]ncc13)C2 [Compound 452] | < 3.16 | > 100 | < 3.16 | < 3.16
CS(=O)(=O)N1CCN(C2CCN(c3cc(Cl)cc4[nH]ncc34)CC2)CC1 [Compound 453] | < 3.16 | 3.24 to 31.6 | < 3.16 | > 100
CC(=O)N1CCN(c2cc(Cl)cc3[nH]ncc23)CC1CO (stereo not shown) [Compound 454] | < 3.16 | 32.4 to 100 | < 3.16 | > 100
CN1C(=O)[C@@H]2CC[C@H]1CN(c1cc(Br)cc3[nH]ncc13)C2 [Compound 455] | < 3.16 | 3.24 to 31.6 | < 3.16 | > 100
